Measured values published in patent US12637430B2, “Interleukin-17 (IL-17) inhibitors” (priority 2020, dated 2026).

Assays:
human IL-17A = target: T1, human IL-17A (Homo sapiens, UniProt Q16552); assay: IL-17A enzyme-linked immunosorbent assay (competitive ELISA, IL-17A/IL-17R binding)
T1 construct: purchased Sino Biological Inc. 12047-H07B
T1 sequence (Q16552 24-155): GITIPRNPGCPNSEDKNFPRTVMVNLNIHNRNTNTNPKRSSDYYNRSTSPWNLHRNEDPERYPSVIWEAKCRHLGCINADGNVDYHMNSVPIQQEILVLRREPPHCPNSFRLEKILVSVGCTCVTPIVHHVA
Experimental: The inhibition of receptor-ligand binding by human IL-17A inhibitors was quantified by competitive ELISA. 0.2 μg/mL of IL-17A (Sino Biological Inc. Cat #12047-H07B) was added in a 96-well plate at 100 μl per well for incubation for 30 min under 37° C. The 96-well plate was washed with PBST (PBS, 0.05% Tween-20) at 200 μl per well for 4 times, and then added with 200 μl of 5% skim milk and placed on a shaker for incubation at 25° C. for 30 min. The compound to be tested was prepared at 100× concentration ranging from 0.003 μM to 30 μM. After washed with PBST (PBS, 0.05% Tween-20) 4 times, the plate was added with 89 μl of PBST and 1 μl of the compound to be tested at 100× concentration followed by uniformly mixing and pre-incubation at 25° C. for 10 min. Then the plate was added with 10 μl of 16 nM IL-17R, and incubated on a shaker at 25° C. for 30 min. After washed for 4 times, the plate was added with 100 μl of anti-Fc-tag horseradish peroxidase (HRP)-conjugated antibody, and incubated on a shaker at 25° C. for 30 min. After washed 4 times, the plate was added with 100 μl of 3,3′, 5,5″-tetramethylbenzidine (TMB) substrate solution, and incubated at 25° C. in the dark. Then the plate was added with 20% HCl, followed by detection of the light absorption value at a wavelength of 450 nm by a microplate reader. The compounds prepared in the above examples were tested for human IL-17A inhibitory activity according to the above method.

human IL-17A protein = target: T2, human IL-17A protein (Homo sapiens, UniProt Q16552); assay: Inhibition of chemokine GROα/CXCL1 generation induced by human IL-17A protein in HT-29 cell; assay type: cell-based
T2 construct: purchased R&D 317-ILB
T2 sequence (Q16552 20-155 limits assumed): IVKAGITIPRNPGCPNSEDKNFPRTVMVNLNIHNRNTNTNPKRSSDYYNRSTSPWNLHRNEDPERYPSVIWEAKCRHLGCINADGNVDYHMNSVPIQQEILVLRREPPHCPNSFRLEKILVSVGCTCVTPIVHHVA
Experimental: HT-29 (Zhongyuan Gongchuang Technology Co., Ltd. of Chengdu, Sichuan) was added to a 96-well plate at 5×10^4 cells/well, and cultured overnight in a incubator at 37° C. A mixture of 30 ng/mL of human IL-17A protein (R&D, #317-ILB) and IL-17A small molecule inhibitors with gradient concentrations or 0.3 μg/mL of positive control IL-17A antibody (R&D, #AF-317-NA) was incubated at 37° C. for 1 h, and then added to the above-mentioned 96-well plate, and incubated with HT-29 cells at 37° C. for 48 hours. Then the GROα level in the cell culture supernatant was detected by an ELISA kit (Cisbio, #62HCXC1PEG) of the GROα.
According to the methods described in Experimental Examples 1 and 2, the compounds prepared in the above-mentioned examples were subjected to the experiment on inhibition of chemokine GROα/CXCL1 generation induced by human IL-17A protein in HT-29 cell.

C[C@@H]1CN(c2ccc(NC(=O)[C@@H](NC(=O)c3ccnn3C)C(C3CCC3)C3(C)CC3)cn2)CCN1 (stereo partly shown) [Compound 24]
IC50 (human IL-17A): > 40000 nM

C[C@@H]1COCCN1c1ccc(NC(=O)[C@@H](NC(=O)c2ccnn2C)C(C2CCC2)C2(C)CC2)cn1 (stereo partly shown) [Compound 10]
IC50 (human IL-17A): 41 nM | IC50 (human IL-17A protein): 7400 nM

CCn1nccc1C(=O)N[C@H](C(=O)Nc1cnc(-c2c(C)n[nH]c2C)c(F)c1)C(C1CC1)C1CC1 [Compound 52]
IC50 (human IL-17A): 98 nM | IC50 (human IL-17A protein): 321 nM

CCc1nocc1C(=O)N[C@H](C(=O)Nc1ccc(-c2c(C)n[nH]c2C)nc1)C(C1CC1)C1CC1 [Compound 42]
IC50 (human IL-17A): 170 nM

Cn1nccc1C(=O)N[C@H](C(=O)Nc1cnc(N2CCOCC2)c(F)c1)C(C1CCC1)C1(C)CC1 (stereo partly shown) [Compound 19]
IC50 (human IL-17A): 73 nM | IC50 (human IL-17A protein): 3160 nM

Cc1n[nH]c(C)c1-c1ccc(NC(=O)[C@@H](NC(=O)c2ccnn2C(C)C)C(C2CC2)C2(C)CC2)cn1 (stereo partly shown) [Compound 56]
IC50 (human IL-17A): 35 nM | IC50 (human IL-17A protein): 87 nM

Cc1conc1C(=O)N[C@H](C(=O)Nc1ccc(-c2c(C)n[nH]c2C)nc1)C(C1CC1)C1CC1 [Compound 44]
IC50 (human IL-17A): 2780 nM

Cn1nccc1C(=O)N[C@H](C(=O)Nc1ccc(C2CCOCC2)cn1)C(C1CCC1)C1(C)CC1 (stereo partly shown) [Compound 3]
IC50 (human IL-17A): 67 nM | IC50 (human IL-17A protein): 1570 nM

Cc1n[nH]c(C)c1-c1ccc(NC(=O)[C@@H](NC(=O)c2ccn(C3CC3)n2)C(C2CC2)C2CC2)cn1 [Compound 49]
IC50 (human IL-17A): 537 nM

Cn1nccc1C(=O)N[C@H](C(=O)Nc1ccc(C2CCOCC2)cc1)C(C1CCC1)C1(C)CC1 (stereo partly shown) [Compound 2]
IC50 (human IL-17A): 66 nM | IC50 (human IL-17A protein): 555 nM

Cc1n[nH]c(C)c1-c1ccc(NC(=O)[C@@H](NC(=O)c2nonc2C(C)C)C(C2CC2)C2CC2)cn1 [Compound 48]
IC50 (human IL-17A): 157 nM | IC50 (human IL-17A protein): 3030 nM

CC[C@@H]1COCCN1c1ccc(NC(=O)[C@@H](NC(=O)c2ccnn2C)C(C2CCC2)C2(C)CC2)cn1 (stereo partly shown) [Compound 15]
IC50 (human IL-17A): 49 nM | IC50 (human IL-17A protein): 2820 nM

Cc1n[nH]c(C)c1-c1ccc(NC(=O)[C@@H](NC(=O)c2ncnn2C)C(C2CC2)C2CC2)cn1 [Compound 47]
IC50 (human IL-17A): 15500 nM

CC(C)[C@H]1COCCN1c1ccc(NC(=O)[C@@H](NC(=O)c2ccnn2C)C(C2CCC2)C2(C)CC2)cn1 (stereo partly shown) [Compound 12]
IC50 (human IL-17A): 40 nM | IC50 (human IL-17A protein): 13600 nM

CCc1nonc1C(=O)N[C@H](C(=O)Nc1ccc(-c2c(C)n[nH]c2C)nc1)C(C1CC1)C1CC1 [Compound 43]
IC50 (human IL-17A): 457 nM

Cc1n[nH]c(C)c1-c1ccc(NC(=O)[C@@H](NC(=O)c2ccnn2C(C)C)C(C2CC2)C2CC2)cn1 [Compound 40]
IC50 (human IL-17A): 117 nM | IC50 (human IL-17A protein): 781 nM

CCN1CCN(c2ccc(NC(=O)[C@@H](NC(=O)c3ccnn3C)C(C3CCC3)C3(C)CC3)cn2)[C@H](C)C1 (stereo partly shown) [Compound 21]
IC50 (human IL-17A): 16900 nM

Cn1nccc1C(=O)N[C@H](C(=O)Nc1ccc(C(C)(C)c2nnc(C3CCC3)o2)cc1)C(C1CCC1)C1(C)CC1 (stereo partly shown) [Compound 36]
IC50 (human IL-17A): 1280 nM

Cc1nocc1C(=O)N[C@H](C(=O)Nc1ccc(-c2c(C)n[nH]c2C)nc1)C(C1CC1)C1CC1 [Compound 46]
IC50 (human IL-17A): 111 nM | IC50 (human IL-17A protein): 856 nM

Cc1n[nH]c(C)c1-c1ccc(NC(=O)[C@@H](NC(=O)c2ccnn2C)C(C2CCC2)C2(C)CC2)cn1 (stereo partly shown) [Compound 37]
IC50 (human IL-17A): 18 nM | IC50 (human IL-17A protein): 257 nM

Cn1nccc1C(=O)N[C@H](C(=O)Nc1ccc(N2CCOCC2)nc1)[C@H](c1ccccc1Cl)C1(C)CC1 [Compound 60]
IC50 (human IL-17A): 327 nM | IC50 (human IL-17A protein): 8020 nM

Cn1nccc1C(=O)N[C@H](C(=O)Nc1ccc2c(c1)NC(=O)C21CCOCC1)[C@H](c1ccccc1)C1(C)CC1 [Compound 25]
IC50 (human IL-17A): 32 nM | IC50 (human IL-17A protein): 420 nM

Cn1nccc1C(=O)N[C@H](C(=O)Nc1ccc(N2CCOCC2)nc1)C(C1CCC1)C1(C)CC1 (stereo partly shown) [Compound 8]
IC50 (human IL-17A): 236 nM

Cc1n[nH]c(C)c1-c1ncc(NC(=O)[C@@H](NC(=O)c2ccnn2C(C)C)C(C2CC2)C2(C)CC2)cc1F (stereo partly shown) [Compound 58]
IC50 (human IL-17A): 42 nM | IC50 (human IL-17A protein): 221 nM

Cn1nccc1C(=O)N[C@H](C(=O)Nc1ccc2c(c1)NC(=O)C21CCOCC1)C(C1CCC1)C1(C)CC1 (stereo partly shown) [Compound 23]
IC50 (human IL-17A): 43 nM | IC50 (human IL-17A protein): 65 nM

Cc1n[nH]c(C)c1-c1ccc(NC(=O)[C@@H](NC(=O)c2nocc2C(C)C)C(C2CC2)C2CC2)cn1 [Compound 45]
IC50 (human IL-17A): 511 nM

CC1CN(C)CCN1c1ccc(NC(=O)[C@@H](NC(=O)c2ccnn2C)C(C2CCC2)C2(C)CC2)cn1 (stereo partly shown) [Compound 20]
IC50 (human IL-17A): 9340 nM

CC[C@H]1COCCN1c1ccc(NC(=O)[C@@H](NC(=O)c2ccnn2C)C(C2CCC2)C2(C)CC2)cn1 (stereo partly shown) [Compound 14]
IC50 (human IL-17A): 21 nM | IC50 (human IL-17A protein): 7270 nM

Cc1nonc1C(=O)N[C@H](C(=O)Nc1cnc(-c2c(C)n[nH]c2C)c(F)c1)C(C1CC1)C1(C)CC1 (stereo partly shown) [Compound 59]
IC50 (human IL-17A): 87 nM | IC50 (human IL-17A protein): 4680 nM

CN1C(=O)C2(CCOCC2)c2ccc(NC(=O)[C@@H](NC(=O)c3ccnn3C)[C@H](c3ccccc3Cl)C3(C)CC3)cc21 [Compound 27]
IC50 (human IL-17A): 104 nM | IC50 (human IL-17A protein): 1080 nM

Cc1n[nH]c(C)c1-c1ccc(NC(=O)[C@@H](NC(=O)c2ccnn2C)C(C2CC2)C2(C)CC2)cn1 (stereo partly shown) [Compound 53]
IC50 (human IL-17A): 55 nM | IC50 (human IL-17A protein): 472 nM

C[C@H]1COCCN1c1ccc(NC(=O)[C@@H](NC(=O)c2ccnn2C)C(C2CCC2)C2(C)CC2)cn1 (stereo partly shown) [Compound 11]
IC50 (human IL-17A): 56 nM | IC50 (human IL-17A protein): 10800 nM

Cn1nccc1C(=O)N[C@H](C(=O)Nc1ccc(C2CCOCC2)cc1)[C@H](c1ccccc1Cl)C1(C)CC1 [Compound 62]
IC50 (human IL-17A): 56 nM | IC50 (human IL-17A protein): 373 nM

CCn1nccc1C(=O)N[C@H](C(=O)Nc1ccc(-c2c(C)n[nH]c2C)nc1)C(C1CC1)C1(C)CC1 (stereo partly shown) [Compound 54]
IC50 (human IL-17A): 47 nM | IC50 (human IL-17A protein): 238 nM

Cc1n[nH]c(C)c1-c1ccc(NC(=O)[C@@H](NC(=O)c2ccnn2C2CC2)C(C2CC2)C2CC2)cn1 [Compound 50]
IC50 (human IL-17A): 27900 nM

Cn1nccc1C(=O)N[C@H](C(=O)Nc1ccc2c(c1)NC(=O)C21CCOCC1)[C@H](c1ccccc1Cl)C1(C)CC1 [Compound 26]
IC50 (human IL-17A): 96 nM | IC50 (human IL-17A protein): 250 nM

C[C@@H]1CN(c2ccc(NC(=O)[C@@H](NC(=O)c3ccnn3C)C(C3CCC3)C3(C)CC3)cn2)CCO1 (stereo partly shown) [Compound 16]
IC50 (human IL-17A): 100 nM | IC50 (human IL-17A protein): 11700 nM

CC(C)N1CCN(c2ccc(NC(=O)[C@@H](NC(=O)c3ccnn3C)C(C3CCC3)C3(C)CC3)cn2)C(C)C1 (stereo partly shown) [Compound 22]
IC50 (human IL-17A): 13700 nM

Cn1nccc1C(=O)N[C@H](C(=O)Nc1ccc(N2CCOC[C@H]2CO)nc1)C(C1CCC1)C1(C)CC1 (stereo partly shown) [Compound 18]
IC50 (human IL-17A): 247 nM

CCn1nccc1C(=O)N[C@H](C(=O)Nc1ccc(-c2c(C)n[nH]c2C)nc1)C(C1CC1)C1CC1 [Compound 39]
IC50 (human IL-17A): 128 nM | IC50 (human IL-17A protein): 514 nM

Cc1n[nH]c(C)c1-c1ccc(NC(=O)[C@@H](NC(=O)c2ccnn2C)C(C2CC2)C2CC2)cn1 [Compound 38]
IC50 (human IL-17A): 385 nM | IC50 (human IL-17A protein): 4460 nM

Cn1nccc1C(=O)N[C@H](C(=O)Nc1cnc(C2CCOCC2)c(F)c1)C(C1CCC1)C1(C)CC1 (stereo partly shown) [Compound 4]
IC50 (human IL-17A): 64 nM | IC50 (human IL-17A protein): 598 nM

Cc1nonc1C(=O)N[C@H](C(=O)Nc1ccc(-c2c(C)n[nH]c2C)nc1)C(C1CC1)C1(C)CC1 (stereo partly shown) [Compound 55]
IC50 (human IL-17A): 53 nM | IC50 (human IL-17A protein): 866 nM

Cn1nccc1C(=O)N[C@H](C(=O)Nc1ccc(N2CCOCC2C2CC2)nc1)C(C1CCC1)C1(C)CC1 (stereo partly shown) [Compound 17]
IC50 (human IL-17A): 136 nM

Cc1nonc1C(=O)N[C@H](C(=O)Nc1ccc(-c2c(C)n[nH]c2C)nc1)C(C1CC1)C1CC1 [Compound 41]
IC50 (human IL-17A): 1140 nM | IC50 (human IL-17A protein): 1470 nM

CC(C)[C@@H]1COCCN1c1ccc(NC(=O)[C@@H](NC(=O)c2ccnn2C)C(C2CCC2)C2(C)CC2)cn1 (stereo partly shown) [Compound 13]
IC50 (human IL-17A): 642 nM
